Measured values as given in patent publication US10100019B2.

Key:
H2228 cells = experiment: cells; conditions: Homo sapiens, NCI-H2228, 72 h, read-out: Cytotoxicity H2228 (GI50 μM), H2228 cells, three days, SRB
H3122 cells = experiment: Cytotoxicity in non-small cell lung cancer cell line H3122 (SRB); type: cell-based, human; conditions: H3122 cells, three days, SRB
Method: Particularly, 4,000 H3122 cells containing ALK enzyme were distributed in each well of a 96 well plate together with 100 μl of DMEM (Dulbecco's Modified Eagle's Medium). One day later, the compound of the present invention was added to each well at different concentrations of […]. DMSO (dimethylsulfoxide) was added to the well that was not loaded with the compound by the same amount as the compound. Three days after the addition of the compound, DMEM was eliminated. 10% TCA (trichloroacetic acid) was added to fix the cells. The wells were washed with running water three times and the live cells were stained with SRB solution (1 sulphorodamine B). Then, OD was measured to calculate the population of the live cells.

Compound	GI50 (H2228 cells)	GI50 (H3122 cells; Homo sapiens, NCI-H3122, 72 h)	GI50 (H3122 cells)
COc1ccc(C2(CN)CCCC2)cc1Nc1ncc(Cl)c(Nc2ccccc2S(=O)(=O)C(C)C)n1 [Example 1, N2-(5-(1-(aminomethyl)cyclopentyl)-2-methoxyphenyl)-5-chloro-N4-(2-(isopropylsulfonyl)phenyl)pyrimidine-2,4-diamine]	2.1 µM	3.06 µM	
COc1ccc(C2(CN)CCCCC2)cc1Nc1ncc(Cl)c(Nc2ccccc2S(=O)(=O)C(C)C)n1 [Example 2, N2-(5-(1-(aminomethyl)cyclohexyl)-2-methoxyphenyl)-5-chloro-N4-(2-(isopropylsulfonyl)phenyl)pyrimidine-2,4-diamine]	3.77 µM	2.63 µM	
COc1ccc(CC2(N)CC2)cc1Nc1ncc(Cl)c(Nc2ccccc2S(=O)(=O)C(C)C)n1 [Example 3, N2-(5-((1-aminocyclopropyl)methyl)-2-methoxyphenyl)-5-chloro-N4-(2-(isopropylsulfonyl)phenyl)pyrimidine-2,4-diamine]	1.21 µM	0.77 µM	
COc1ccc(CCN)cc1Nc1ncc(Cl)c(Nc2ccccc2S(=O)(=O)C(C)C)n1 [Example 4, N2-(5-(2-aminoethyl)-2-methoxyphenyl)-5-chloro-N4-(2-(isopropylsulfonyl)phenyl) pyrimidine-2,4-diamine]		≤ 0.1 µM	0.08 µM
COc1ccc(C2(CN3CCCCC3)CCCC2)cc1Nc1ncc(Cl)c(Nc2ccccc2S(=O)(=O)C(C)C)n1 [Example 5]	7.8 µM		10 µM
COc1ccc(C2(CN3CCOCC3)CCCC2)cc1Nc1ncc(Cl)c(Nc2ccccc2S(=O)(=O)C(C)C)n1 [Example 6, 5-chloro-N4-(2-(isopropylsulfonyl)phenyl)-N2-(2-methoxy-5-(1-(morpholinomethyl)cyclopentyl)phenyl)pyrimidine-2,4-diamine]	10 µM		10 µM
COc1ccc(CCNC(C)=O)cc1Nc1ncc(Cl)c(Nc2ccccc2S(=O)(=O)C(C)C)n1 [Example 7, N-(3-(5-chloro-4-(2-(isopropylsulfonyl)phenylamino)pyrimidine-2-ylamino)-4-methoxyphenethyl)acetamide]	0.8 µM	0.79 µM	
COc1ccc(CCNS(C)(=O)=O)cc1Nc1ncc(Cl)c(Nc2ccccc2S(=O)(=O)C(C)C)n1 [Example 8, N-(3-(5-chloro-4-(2-(isopropylsulfonyl)phenylamino)pyrimidine-2-ylamino)-4-methoxyphenethyl) methanesulfonamide]	0.88 µM	1.9 µM	
COc1ccc(CCN(C)C)cc1Nc1ncc(Cl)c(Nc2ccccc2S(=O)(=O)C(C)C)n1 [Example 9, 5-chloro-N2-(5-(2-(dimethylamino)ethyl)-2-methoxyphenyl)-N4-(2-(isopropylsulfonyl)phenyl)pyrimidine-2,4-diamine]	0.23 µM	0.22 µM	
CNCCc1ccc(OC)c(Nc2ncc(Cl)c(Nc3ccccc3S(=O)(=O)C(C)C)n2)c1 [Example 10, 5-chloro-N4-(2-(isopropylsulfonyl)phenyl)-N2-(2-methoxy-5-(2-(methylamino)ethyl)phenyl)pyrimidine-2,4-diamine]	1.8 µM	1.2 µM	
COc1ccc(CCNCc2ccccc2)cc1Nc1ncc(Cl)c(Nc2ccccc2S(=O)(=O)C(C)C)n1 [Example 11, N2-(5-(2-(benzylamino)ethyl)-2-methoxyphenyl)-5-chloro-N4-(2-(isopropylsulfonyl)phenyl)pyrimidine-2,4-diamine]	1.4 µM	1.4 µM	
COc1ccc(CCNC(=O)Cc2ccccc2)cc1Nc1ncc(Cl)c(Nc2ccccc2S(=O)(=O)C(C)C)n1 [Example 12, N-(3-(5-chloro-4-(2-(isopropylsulfonyl)phenylamino)pyrimidine-2-ylamino)-4-methoxyphenethyl)-2-phenylacetamide]	1.1 µM	4.7 µM	
CCNCCc1ccc(OC)c(Nc2ncc(Cl)c(Nc3ccccc3S(=O)(=O)C(C)C)n2)c1 [Example 13, 5-chloro-N2-(5-(2-(ethylamino)ethyl)-2-methoxyphenyl)-N4-(2-(isopropylsulfonyl)phenyl)pyrimidine-2,4-diamine]	0.87 µM	0.99 µM	
CCN(CC)CCc1ccc(OC)c(Nc2ncc(Cl)c(Nc3ccccc3S(=O)(=O)C(C)C)n2)c1 [Example 14, 5-chloro-N2-(5-(2-(diethylamino)ethyl)-2-methoxyphenyl)-N4-(2-(isopropylsulfonyl)phenyl)pyrimidine-2,4-diamine]	0.09 µM	≤ 0.1 µM	0.05 µM
COc1ccc(CCCNC(=O)C(F)(F)F)cc1Nc1ncc(Cl)c(Nc2ccccc2S(=O)(=O)C(C)C)n1 [Example 40, N-(3-(3-((5-chloro-4-((2-(isopropylsulfonyl)phenyl)amino)pyrimidine-2-yl)amino)-4-methoxyphenyl)propyl)-2,2,2-trifluoroacetamide]		0.33 µM	
COc1ccc(CCCN)cc1Nc1ncc(Cl)c(Nc2ccccc2S(=O)(=O)C(C)C)n1 [Example 41, N2-(5-(3-aminopropyl)-2-methoxyphenyl)-5-chloro-N4-(2-(isopropylsulfonyl)phenyl)pyrimidine-2,4-diamine]		0.19 µM	
COc1ccc(CC(N)=O)cc1Nc1ncc(Cl)c(Nc2ccccc2S(=O)(=O)C(C)C)n1 [Example 42, 2-(3-((5-chloro-4-((2-(isopropylsulfonyl)phenyl)amino)pyrimidine-2-yl)amino)-4-methoxyphenyl)acetamide]		0.15 µM	
CCOCCOC(=O)Cc1ccc(OC)c(Nc2ncc(Cl)c(Nc3ccccc3S(=O)(=O)C(C)C)n2)c1 [Example 43, 2-ethoxyethyl 2-(3-((5-chloro-4-((2-(isopropylsulfonyl)phenyl)amino)pyrimidine-2-yl)amino)-4-methoxyphenyl)acetate]		> 10 µM	
COc1ccc(CC(=O)O)cc1Nc1ncc(Cl)c(Nc2ccccc2S(=O)(=O)C(C)C)n1 [Example 44, 2-(3-((5-chloro-4-((2-(isopropylsulfonyl)phenyl)amino)pyrimidine-2-yl)amino)-4-methoxyphenyl)acetic acid]		1 µM	
COc1ccc(CC(=O)N2CCOCC2)cc1Nc1ncc(Cl)c(Nc2ccccc2S(=O)(=O)C(C)C)n1 [Example 45, 2-(3-((5-chloro-4-((2-(isopropylsulfonyl)phenyl)amino)pyrimidine-2-yl)amino)-4-methoxyphenyl)-1-morpholinoethane-1-one]			10 µM
COc1ccc(CC(=O)N2CCCCC2)cc1Nc1ncc(Cl)c(Nc2ccccc2S(=O)(=O)C(C)C)n1 [Example 46, 2-(3-((5-chloro-4-((2-(isopropylsulfonyl)phenyl)amino)pyrimidine-2-yl)amino)-4-methoxyphenyl)-1-(piperidine-1-yl)ethane-1-one]			10 µM
COc1ccc(CC(=O)N2CCNCC2)cc1Nc1ncc(Cl)c(Nc2ccccc2S(=O)(=O)C(C)C)n1 [Example 48, 2-(3-((5-chloro-4-((2-(isopropylsulfonyl)phenyl)amino)pyrimidine-2-yl)amino)-4-methoxyphenyl)-1-(piperazine-1-yl) ethane-1-one]		0.58 µM	
COc1ccc(CC(=O)Nc2ccncc2)cc1Nc1ncc(Cl)c(Nc2ccccc2S(=O)(=O)C(C)C)n1 [Example 49, 2-(3-((5-chloro-4-((2-(isopropylsulfonyl)phenyl)amino)pyrimidine-2-yl)amino)-4-methoxyphenyl)-N-(pyridine-4-yl)acetamide]			10 µM
COc1ccc(CC(=O)Nc2ccccc2)cc1Nc1ncc(Cl)c(Nc2ccccc2S(=O)(=O)C(C)C)n1 [Example 50, 2-(3-((5-chloro-4-((2-(isopropylsulfonyl)phenyl)amino)pyrimidine-2-yl)amino)-4-methoxyphenyl)-N-phenylacetamide]			10 µM
COc1cc(Br)c(CCN)cc1Nc1ncc(Cl)c(Nc2ccccc2S(=O)(=O)C(C)C)n1 [Example 51, N2-(5-(2-aminoethyl)-4-bromo-2-methoxyphenyl)-5-chloro-N4-(2-(isopropylsulfonyl)phenyl)pyrimidine-2,4-diamine]		1.1 µM	
COc1cc(-c2cnn(C)c2)c(CCN)cc1Nc1ncc(Cl)c(Nc2ccccc2S(=O)(=O)C(C)C)n1 [Example 52, N2-(5-(2-aminoethyl)-2-methoxy-4-(1-methyl-1H-pyrazole-4-yl)phenyl)-5-chloro-N4-(2-(isopropylsulfonyl)phenyl)pyrimidine-2,4-diamine]		0.096 µM	
COc1cc(C(C)(C)N)c(C)cc1Nc1ncc(Cl)c(Nc2ccccc2S(=O)(=O)C(C)C)n1 [Example 57, N2-(4-(2-aminopropane-2-yl)-2-methoxy-5-methylphenyl)-5-chloro-N4-(2-(isopropylsulfonyl)phenyl)pyrimidine-2,4-diamine]		0.012 µM	
COc1cc(CN)c(C)cc1Nc1ncc(Cl)c(Nc2ccccc2S(=O)(=O)C(C)C)n1 [Example 68, N2-(4-(aminomethyl)-2-methoxy-5-methylphenyl)-5-chloro-N4-(2-(isopropylsulfonyl)phenyl)pyrimidine-2,4-diamine]		0.11 µM	
COc1cc(C[N+](C)(C)C)c(C)cc1Nc1ncc(Cl)c(Nc2ccccc2S(=O)(=O)C(C)C)n1 [Example 69, 1-(4-((5-chloro-4-((2-(isopropylsulfonyl)phenyl)amino)pyrimidine-2-yl)amino)-5-methoxy-2-methylphenyl)-N,N,N-trimethylmethanealuminum iodide]		1.7 µM	
COc1ccc(CCN2CCNCC2)cc1Nc1ncc(Cl)c(Nc2ccccc2S(=O)(=O)C(C)C)n1 [Example 73, 5-chloro-N4-(2-(isopropylsulfonyl)phenyl)-N2-(2-methoxy-5-(2-(piperazine-1-yl)ethyl)phenyl)pyrimidine-2,4-diamine]		0.16 µM	
